Measurements taken from US20250082624A1, “METHODS OF TREATING COGNITIVE IMPAIRMENT” (NeuroTherapia, Inc., priority 2023, published 2025).
Entries after “also recorded” stand apart in the source; their conditions may differ. Like-named read-outs stand apart in the source and are kept apart here.

Test: Phase 1b MAD plasma pharmacokinetics, non-compartmental analysis
Type: in vivo, human
Source text: Methods: All study procedures were approved by the IRB, and informed consent was obtained. Three cohorts of volunteers 45-80 years of age with well-controlled comorbidities (NOAD) and one cohort of AD patients diagnosed with cognitive impairment consistent with prodromal AD per International Working Group criteria or mild AD per National Institute on Aging—Alzheimer's Association criteria (n=6 active, 2 placebo per cohort) were enrolled. Participants were admitted to the study site for the duration of the dosing and returned 7-12 days after the last dose for a safety visit. Participants received NTRX-07 (10, 30, or 90 mg) or a placebo in a double-blinded randomization orally once daily for seven days. Subjects were assessed for changes in vital signs, including maneuvers to induce lightheadedness, electrocardiograms, 24-hour electroencephalograms (EEG), and safety laboratory studies. The second cohort returned and received a single repeat dose after a standard high-fat meal. The AD cohort also underwent cognitive testing and had blood samples for biomarkers drawn. Subjects had PK sampling done after the first and final dose of the study drug. An independent safety review committee conducted a blinded safety review of adverse events and plasma levels between each cohort.
All subjects had PK sampling done after the first and final dose of the study drug.
Raw bioanalytical data were received from Nuvisan following analysis of plasma samples from each of four cohorts. PK parameters were calculated by noncompartmental analysis using standard equations. Specifically, area under the plasma concentration versus time curve (AUC) was calculated using the trapezoid rule. Maximal plasma concentration (Cmax) and time of maximal plasma concentration (Tmax) were taken directly from the data. Clearance divided by bioavailability (Cl/F) was calculated as the dose divided by the AUC. Apparent volume of distribution over bioavailability (Vd/F) was calculated as dose divided by Cmax.
With oral administration of the dose every 24 hours for 7 days, blood samples were taken over a 24-hour interval on Days 1 and 7 and before and after dosing on Day 3.
Raw bioanalytical data were received from Nuvisan on Oct. 27, 2022. […] Specifically, area under the plasma concentration versus time curve (AUC) was calculated using the trapezoid rule. Maximal plasma concentration (Cmax) and time of maximal plasma concentration (Tmax) were taken directly from the data. Clearance divided by bioavailability (Cl/F) was calculated as the dose divided by the AUC. Apparent volume of distribution over bioavailability (Vd/F) was calculated as dose divided by Cmax.
Raw bioanalytical data were received from Nuvisan on Nov. 24, 2022. […] Specifically, area under the plasma concentration versus time curve (AUC) was calculated using the trapezoid rule. Maximal plasma concentration (Cmax) and time of maximal plasma concentration (Tmax) were taken directly from the data. Clearance divided by bioavailability (Cl/F) was calculated as the dose divided by the AUC. Apparent volume of distribution over bioavailability (Vd/F) was calculated as dose divided by Cmax.
Raw bioanalytical data were received from Nuvisan on Dec. 19, 2022. […] Specifically, area under the plasma concentration versus time curve (AUC) was calculated using the trapezoid rule. Maximal plasma concentration (Cmax) and time of maximal plasma concentration (Tmax) were taken directly from the data. Clearance divided by bioavailability (Cl/F) was calculated as the dose divided by the AUC. Apparent volume of distribution over bioavailability (Vd/F) was calculated as dose divided by Cmax.
Raw bioanalytical data were received from Nuvisan on Jun. 30, 2023. […] Specifically, area under the plasma concentration versus time curve (AUC) was calculated using the trapezoid rule. Maximal plasma concentration (Cmax) and time of maximal plasma concentration (Tmax) were taken directly from the data. […]

In the case of `CC1(Cc2ccccc2)COc2cc(C(=O)N3CCCCC3)ccc21` (stereo not drawn) [NTRX-07, 3-benzyl-3-methyl-2,3-dihydrobenzofuran-6-carboxylic acid-piperidine amide], the Cmax (human, plasma, po, 90 mg, Cohort D AD patients, 90 mg QD oral, Day 7, mean ± SD, read-out: Average of Cmax) is reported as 240 ± 38 ng/mL, the Tmax (human, plasma, po, 90 mg, Cohort D AD patients, 90 mg QD oral, Day 7, mean ± SD, read-out: Average of Tmax) is reported as 1.1 ± 0.5 h and the Vd/F (human, plasma, po, 90 mg, Cohort D AD patients, 90 mg QD oral, Day 7, mean ± SD, read-out: Average of Vd/F) is reported as 384 ± 69 L. It also gave an AUC over 24 h (AUC0-24) (human, plasma, po, 90 mg, Table 14: Cohort C, 90 mg QD oral, Day 1, mean ± S.D.) of 1270 ± 509 ng·h/mL, a Cmax (human, plasma, po, 90 mg, Table 14: Cohort C, 90 mg QD oral, Day 1, mean ± S.D., read-out: Cmax) of 400 ± 202 ng/mL and a Tmax (human, plasma, po, 90 mg, Table 14: Cohort C, 90 mg QD oral, Day 1, mean ± S.D., read-out: Tmax) of 2.3 ± 2.2 h. For the same molecule, the Vd/F (human, plasma, po, 90 mg, Table 14: Cohort C, 90 mg QD oral, Day 1, mean ± S.D., read-out: Vd/F) was 337 ± 316 L, the AUC over 24 h (AUC0-24) (human, plasma, po, 90 mg, Table 15: Cohort C, 90 mg QD oral, Day 7, mean ± S.D.) was 741 ± 357 ng·h/mL and the Cmax (human, plasma, po, 90 mg, Table 15: Cohort C, 90 mg QD oral, Day 7, mean ± S.D., read-out: Cmax) was 189 ± 95 ng/mL. It also gave a Tmax (human, plasma, po, 90 mg, Table 15: Cohort C, 90 mg QD oral, Day 7, mean ± S.D., read-out: Tmax) of 1.3 ± 1 h, a Vd/F (human, plasma, po, 90 mg, Table 15: Cohort C, 90 mg QD oral, Day 7, mean ± S.D., read-out: Vd/F) of 568 ± 231 L and an AUC(0-t) (human, plasma, po, 90 mg, Table 16: Cohort D (AD), 90 mg QD oral, Day 1, mean ± S.D., read-out: AUClast) of 1560 ± 605 ng·h/mL. For the same molecule, the Cmax (human, plasma, po, 90 mg, Table 16: Cohort D (AD), 90 mg QD oral, Day 1, mean ± S.D., read-out: Cmax) was 478 ± 154 ng/mL, the Tmax (human, plasma, po, 90 mg, Table 16: Cohort D (AD), 90 mg QD oral, Day 1, mean ± S.D., read-out: Tmax) was 1.1 ± 0.6 h and the Vd/F (human, plasma, po, 90 mg, Table 16: Cohort D (AD), 90 mg QD oral, Day 1, mean ± S.D., read-out: Vd/F) was 211 ± 90 L. For the same molecule, the AUC over 24 h (AUC0-24) (human, plasma, po, 90 mg, Table 17: Cohort D (AD), 90 mg QD oral, Day 7, individual subjects) was 623 ng·h/mL, the Cmax (human, plasma, po, 90 mg, Table 17: Cohort D (AD), 90 mg QD oral, Day 7, individual subjects, read-out: Cmax) was 286 ng/mL and the Vd/F (human, plasma, po, 90 mg, Table 17: Cohort D (AD), 90 mg QD oral, Day 7, individual subjects, read-out: Vd/F) was 315 L. The AUC over 24 h (AUC0-24) (human, plasma, po, 90 mg, Table 17: Cohort D (AD), 90 mg QD oral, Day 7, mean ± S.D.) was 806 ± 196 ng·h/mL, the Cmax (human, plasma, po, 90 mg, Table 17: Cohort D (AD), 90 mg QD oral, Day 7, mean ± S.D., read-out: Cmax) was 240 ± 38 ng/mL and the Tmax (human, plasma, po, 90 mg, Table 17: Cohort D (AD), 90 mg QD oral, Day 7, mean ± S.D., read-out: Tmax) was 1.1 ± 0.5 h. The Vd/F (human, plasma, po, 90 mg, Table 17: Cohort D (AD), 90 mg QD oral, Day 7, mean ± S.D., read-out: Vd/F) was 384 ± 69 L, the AUC over 24 h (AUC0-24) (human, plasma, po, 120 mg, Table 24 (interim): Cohort B, 120 mg SDD (30 mg NTRX-07) QD oral, Day 1, mean ± S.D.) was 323 ± 213 ng·h/mL and the Cmax (human, plasma, po, 120 mg, Table 24 (interim): Cohort B, 120 mg SDD (30 mg NTRX-07) QD oral, Day 1, mean ± S.D., read-out: Cmax) was 109 ± 57.8 ng/mL. For the same molecule, the Tmax (human, plasma, po, 120 mg, Table 24 (interim): Cohort B, 120 mg SDD (30 mg NTRX-07) QD oral, Day 1, mean ± S.D., read-out: Tmax) was 0.9 ± 0.6 h, the Vd/F (human, plasma, po, 120 mg, Table 24 (interim): Cohort B, 120 mg SDD (30 mg NTRX-07) QD oral, Day 1, mean ± S.D., read-out: Vd/F) was 1340 ± 750 L and the Tmax (human, plasma, po, 120 mg, Table 25 (interim): Cohort B, 120 mg SDD (30 mg NTRX-07) QD oral, Day 7, individual subjects, read-out: Tmax) was 0.5 h. It also gave an AUC over 24 h (AUC0-24) (human, plasma, po, 120 mg, Table 25 (interim): Cohort B, 120 mg SDD (30 mg NTRX-07) QD oral, Day 7, mean ± S.D.) of 214 ± 191 ng·h/mL, a Cmax (human, plasma, po, 120 mg, Table 25 (interim): Cohort B, 120 mg SDD (30 mg NTRX-07) QD oral, Day 7, mean ± S.D., read-out: Cmax) of 120 ± 79.2 ng/mL and a Tmax (human, plasma, po, 120 mg, Table 25 (interim): Cohort B, 120 mg SDD (30 mg NTRX-07) QD oral, Day 7, mean ± S.D., read-out: Tmax) of 0.5 h. For the same molecule, the Vd/F (human, plasma, po, 120 mg, Table 25 (interim): Cohort B, 120 mg SDD (30 mg NTRX-07) QD oral, Day 7, mean ± S.D., read-out: Vd/F) was 1240 ± 936 L, the AUC over 24 h (AUC0-24) (human, plasma, po, 360 mg SDD, Table 29 (interim): Cohort C, 360 mg SDD (90 mg NTRX-07) QD oral, Day 1, mean ± S.D.) was 1290 ± 541 ng·h/mL and the Cmax (human, plasma, po, 360 mg SDD, Table 29 (interim): Cohort C, 360 mg SDD (90 mg NTRX-07) QD oral, Day 1, mean ± S.D., read-out: Cmax) was 439 ± 236 ng/mL. It also gave a Tmax (human, plasma, po, 360 mg SDD, Table 29 (interim): Cohort C, 360 mg SDD (90 mg NTRX-07) QD oral, Day 1, mean ± S.D., read-out: Tmax) of 2.3 ± 2.8 h, a Vd/F (human, plasma, po, 360 mg SDD, Table 29 (interim): Cohort C, 360 mg SDD (90 mg NTRX-07) QD oral, Day 1, mean ± S.D., read-out: Vd/F) of 1300 ± 1290 L and an AUC over 24 h (AUC0-24) (human, plasma, po, 360 mg SDD, Table 30 (interim): Cohort C, 360 mg SDD (90 mg NTRX-07) QD oral, Day 7, mean ± S.D.) of 747 ± 349 ng·h/mL. For the same molecule, the Cmax (human, plasma, po, 360 mg SDD, Table 30 (interim): Cohort C, 360 mg SDD (90 mg NTRX-07) QD oral, Day 7, mean ± S.D., read-out: Cmax) was 189 ± 95 ng/mL, the Tmax (human, plasma, po, 360 mg SDD, Table 30 (interim): Cohort C, 360 mg SDD (90 mg NTRX-07) QD oral, Day 7, mean ± S.D., read-out: Tmax) was 1.3 ± 1 h and the Vd/F (human, plasma, po, 360 mg SDD, Table 30 (interim): Cohort C, 360 mg SDD (90 mg NTRX-07) QD oral, Day 7, mean ± S.D., read-out: Vd/F) was 2270 ± 923 L. The AUC over 24 h (AUC0-24) (human, plasma, po, 360 mg SDD, Table 34 (interim): Cohort D (AD), 360 mg SDD (90 mg NTRX-07) QD oral, Day 1, mean ± S.D.) was 1560 ± 329 ng·h/mL, the Cmax (human, plasma, po, 360 mg SDD, Table 34 (interim): Cohort D (AD), 360 mg SDD (90 mg NTRX-07) QD oral, Day 1, mean ± S.D., read-out: Cmax) was 478 ± 154 ng/mL and the Tmax (human, plasma, po, 360 mg SDD, Table 34 (interim): Cohort D (AD), 360 mg SDD (90 mg NTRX-07) QD oral, Day 1, mean ± S.D., read-out: Tmax) was 1.1 ± 0.6 h. It also gave a Vd/F (human, plasma, po, 360 mg SDD, Table 34 (interim): Cohort D (AD), 360 mg SDD (90 mg NTRX-07) QD oral, Day 1, mean ± S.D., read-out: Vd/F) of 845 ± 360 L, an AUC over 24 h (AUC0-24) (human, plasma, po, 360 mg SDD, Table 35 (interim): Cohort D (AD), 360 mg SDD (90 mg NTRX-07) QD oral, Day 7, individual subjects) of 1010 ng·h/mL and a Cmax (human, plasma, po, 360 mg SDD, Table 35 (interim): Cohort D (AD), 360 mg SDD (90 mg NTRX-07) QD oral, Day 7, individual subjects, read-out: Cmax) of 286 ng/mL. For the same molecule, the Vd/F (human, plasma, po, 360 mg SDD, Table 35 (interim): Cohort D (AD), 360 mg SDD (90 mg NTRX-07) QD oral, Day 7, individual subjects, read-out: Vd/F) was 1260 L, the AUC over 24 h (AUC0-24) (human, plasma, po, 360 mg SDD, Table 35 (interim): Cohort D (AD), 360 mg SDD (90 mg NTRX-07) QD oral, Day 7, mean ± S.D.) was 1430 ± 329 ng·h/mL and the Cmax (human, plasma, po, 360 mg SDD, Table 35 (interim): Cohort D (AD), 360 mg SDD (90 mg NTRX-07) QD oral, Day 7, mean ± S.D., read-out: Cmax) was 240 ± 38 ng/mL. The Tmax (human, plasma, po, 360 mg SDD, Table 35 (interim): Cohort D (AD), 360 mg SDD (90 mg NTRX-07) QD oral, Day 7, mean ± S.D., read-out: Tmax) was 1.1 ± 0.5 h, the Vd/F (human, plasma, po, 360 mg SDD, Table 35 (interim): Cohort D (AD), 360 mg SDD (90 mg NTRX-07) QD oral, Day 7, mean ± S.D., read-out: Vd/F) was 1540 ± 278 L and the “Plasma levels / exposure Day 7 vs Day 1” value (repeat QD dosing, 90 mg cohorts) was “A decrease of levels at Day 7 was observed; also recorded: exposure is decreasing rather than increasing over time”.
